In patent US20120095022A1, “DERIVATIVES OF 10-AMINO-1,2,3,4-TETRAHYDROPYRIDO[2,1-A]ISOINDOL-6(10BH)-ONES, METHOD FOR PREPARATION THEREOF AND THERAPEUTIC USES THEREOF” (UNIVERSITE D'ORLEANS, priority 2009, published 2012):
pIC50: −log10 of the molar value.

Columns and labels:
Huh7 (liver) = test: Cytotoxicity on human cells, automated nuclei counting: Huh7; assay type: cell-based; conditions: Huh-7, exposed 24 h to 48 h, 0.1 to 25 μM
Experimental: (§1) Cytotoxicity: This method is based on an automated imaging analysis. 4.10^3 cells were cultivated on 96-well plates and left for 24 hours so as to bind, to spread and proliferate.
(§2) All the cell lines were cultivated in a DMEM or RPMI (Invitrogen) medium. All these media were completed with antibiotics (penicillin-streptomycin) (Lonza) and 10% by volume of fetal calf serum (Invitrogen). The cells were cultivated at 37° C. with 5% of CO2. The treatments with the molecules to be tested were carried out with increasing concentrations. The control experiments were also carried out by using suitable dilutions of DMSO (maximum 1% DMSO).

Caco (colon) = test: Cytotoxicity on human cells, automated nuclei counting: Caco; assay type: cell-based; conditions: exposed 24 h to 48 h, 0.1 to 25 μM
Experimental: as §1, §2

MDA-MB 231 (breast) = test: Cytotoxicity on human cells, automated nuclei counting: MDA-MB 231; assay type: cell-based; conditions: MDA-MB 231 cells, exposed 24 h to 48 h, 0.1 to 25 μM
Experimental: as §1, §2

HCT 116 (colon) = test: Cytotoxicity on human cells, automated nuclei counting: HCT 116; assay type: cell-based; conditions: HCT 116 cells, exposed 24 h to 48 h, 0.1 to 25 μM
Experimental: as §1, §2

PC3 (prostate) = test: Cytotoxicity on human cells, automated nuclei counting: PC3; assay type: cell-based; conditions: PC-3, exposed 24 h to 48 h, 0.1 to 25 μM
Experimental: as §1, §2

NCI (lung) = test: Cytotoxicity on human cells, automated nuclei counting: NCI; assay type: cell-based; conditions: exposed 24 h to 48 h, 0.1 to 25 μM
Experimental: as §1, §2

fibroblast = test: Cytotoxicity on human cells, automated nuclei counting: fibroblast; assay type: cell-based; conditions: exposed 24 h to 48 h, 0.1 to 25 μM
Experimental: as §1, §2

CDK5/D25 = molecular target: T1, CDK5/D25 (Homo sapiens, UniProt Q00535); test: CDK5 kinase inhibition (33P-ATP, histone H1); assay type: biochemical; conditions: buffer C, 30° C., 15 μM ATP, read-out: IC50 μM Kinases CDK5
T1 construct: made in house
Experimental: The protein kinase inhibition activities of the compounds of the invention are tested according to the following general procedure:
Buffer C: 60 mM β-glycerophosphate, 15 mM p-nitrophenyl-phosphate, 25 mM Mops (pH 7.2), 5 mM EGTA, 15 mM mgCl2, 1 mM DTT, 1 mM sodium vanadate and 1 mM phenylphosphate.
The controls were made with suitable dilutions of DMSO.
ATP (3.000 Ci/mmol.; 10 mCi/mL) in a final volume of 30 μL. After 30 mins of incubation at 30° C., 25 μL of supernatant aliquots were deposited on phosphocellulose Whatman P81 paper pieces of 2.5×3 cm, and after 20 seconds, the filters were washed five times (for at least 5 minutes each time) in a solution of 10 mL of phosphoric acid/1 litre of water. The wet filters were counted in the presence of 1 mL of scintillation fluid ACS (Amersham).

GSK-3αβ = test: GSK-3 kinase inhibition (GS-1 substrate); conditions: read-out: IC50 μM Kinases GSK3, buffer A, 30° C., 15 μM ATP
DYRK1A = DYRK1A (Homo sapiens, UniProt Q13627); test: DYRK1A kinase inhibition (Woodtide substrate)

T1 sequence (Q00535 whole entry): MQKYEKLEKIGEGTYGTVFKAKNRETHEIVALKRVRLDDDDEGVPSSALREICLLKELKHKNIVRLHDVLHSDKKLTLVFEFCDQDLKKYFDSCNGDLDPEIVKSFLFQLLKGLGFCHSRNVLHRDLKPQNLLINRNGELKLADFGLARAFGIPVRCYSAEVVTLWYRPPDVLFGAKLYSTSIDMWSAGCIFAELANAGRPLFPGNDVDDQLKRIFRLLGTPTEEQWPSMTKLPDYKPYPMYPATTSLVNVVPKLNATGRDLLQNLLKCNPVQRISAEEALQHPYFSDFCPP
T1 sequence (Q15078 99-307 partner limits assumed): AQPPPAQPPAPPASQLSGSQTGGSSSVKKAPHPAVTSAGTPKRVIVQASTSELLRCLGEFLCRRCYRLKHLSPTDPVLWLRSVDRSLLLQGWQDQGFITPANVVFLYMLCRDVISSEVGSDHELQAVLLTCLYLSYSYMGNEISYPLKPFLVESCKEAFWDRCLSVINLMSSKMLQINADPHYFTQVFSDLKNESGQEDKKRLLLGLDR

SMILES	IC50 (Huh7 (liver)) [µM]	IC50 (Caco (colon)) [µM]	IC50 (MDA-MB 231 (breast)) [µM]	IC50 (HCT 116 (colon)) [µM]	IC50 (PC3 (prostate)) [µM]	IC50 (NCI (lung)) [µM]	IC50 (fibroblast) [µM]	IC50 (CDK5/D25) [µM]	melting point [°C]	IC50 (GSK-3αβ) [µM]	pIC50 (DYRK1A)
Cc1cnc(NC(=O)Nc2cccc3c2C2CC4(CCN2C3=O)SCCS4)cn1 (stereo not shown) [Compound 51]	0.3	0.5	0.4	0.2	0.4	0.8	8	0.22	> 260	0.05	< 5.00
O=C1c2cccc(NC(=S)Nc3ccccn3)c2C2CCCCN12 (stereo not shown) [Compound 62, 1-(6-Oxo-1,2,3,4,6,10b-hexahydropyrido[2,1-a]isoindol-10-yl)-3-(pyridin-2-yl)thiourea]	> 25	20	25	8	20	> 25	> 25	–	195	2.3	4.33
O=C1c2cccc(NC(=S)Nc3cnccn3)c2C2CCCCN12 (stereo not shown) [Compound 63, 1-(6-Oxo-1,2,3,4,6,10b-hexahydropyrido[2,1-a]isoindol-10-yl)-3-(pyrazin-2-yl)thiourea]	> 25	> 25	> 25	> 25	> 25	> 25	> 25	26	204	8	< 4.00
O=C1c2cccc(NC(=S)Nc3cnccn3)c2C2CC3(CCN12)SCCS3 (stereo not shown) [Compound 69, 1-(6′-Oxo-3′,4′,6′,10b′-tetrahydro-1′H-spiro[[1,3]dithiolane-2,2′-pyrido[2,1-a]isoindole]-10′-yl)-3-(pyrazin-2-yl)thiourea]	> 25	4	10	15	> 25	> 25	25	> 10	128	> 10	< 5.00
O=C(Nc1cccc(F)n1)Nc1cccc2c1C1CCCCN1C2=O (stereo not shown) [Compound 23, 1-(6-Fluoropyridin-2-yl)-3-(6-oxo-1,2,3,4,6,10b-hexahydropyrido[2,1-a]isoindol-10-yl)urea]	0.1	0.03	0.03	< 0.01	0.03	0.3	0.3	0.9	254	0.026	5.46
O=C(Nc1cccc2c1C1CCCCN1C2=O)Nc1ncccc1Br (stereo not shown) [Compound 75, 1-(3-Bromopyridin-2-yl)-3-(6-oxo-1,2,3,4,6,10b-hexahydropyrido[2,1-a]isoindol-10-yl)urea]	0.25	5	1.5	0.4	7	2	0.6	0.48	220	0.17	5.52
COC1CCN2C(=O)c3cccc(NC(=O)Nc4cc(C)ccn4)c3C2C1 (stereo not shown) [Compound 58, 1-(2-methoxy-6-oxo-1,2,3,4,6,10b-hexahydropyrido[2,1-a]isoindol-10-yl)-3-(4-methylpyridin-2-yl)urea]	0.1	0.5	0.3	0.03	0.4	0.4	0.5	0.32	–	0.032	< 5.00
O=C(Nc1ccncn1)Nc1cccc2c1C1CCCCN1C2=O (stereo not shown) [Compound 32, 1-(6-Oxo-1,2,3,4,6,10b-hexahydropyrido[2,1-a]isoindol-10-yl)-3-(pyrimidin-4-yl)urea]	–	–	–	–	–	–	–	1.5	218	0.36	4.15
O=C1c2cccc(NC(=S)Nc3ccc(Br)cn3)c2C2CCCCN12 (stereo not shown) [Compound 66, 1-(5-Bromopyridin-2-yl)-3-(6-oxo-1,2,3,4,6,10b-hexahydropyrido[2,1-a]isoindol-10-yl)thiourea]	> 25	2	2	3	> 25	25	4	8.7	–	2.1	< 4.00
COc1cc(NC(=O)Nc2cccc3c2C2CC4(CCN2C3=O)SCCS4)nc2ccccc12 (stereo not shown) [Compound 49]	5	15	20	10	15	10	25	> 10	–	4	< 5.00
COC1CCN2C(=O)c3cccc(NC(=O)Nc4cccc(C)n4)c3C2C1 (stereo not shown) [Compound 56, 1-(2-Methoxy-6-oxo-1,2,3,4,6,10b-hexahydropyrido[2,1-a]isoindol-10-yl)-3-(6-methylpyri-din-2-yl)urea]	3	6	7	3	6	10	7	4.3	–	0.32	< 5.00
O=C(Nc1cccc2c1C1CCCCN1C2=O)Nc1nc(Cl)c(Cl)c(Cl)c1Cl (stereo not shown) [Compound 33, 1-(6-oxo-1,2,3,4,6,10b-hexahydropyrido[2,1-a]isoindol-10-yl)-3-(perchloro-pyridin-2-yl)urea]	0.25	1.5	0.5	0.5	1	0.8	0.5	–	246	4.3	< 4.00
COC1CCN2C(=O)c3cccc(NC(=O)Nc4ccccn4)c3C2C1 (stereo not shown) [Compound 53, 1-(2-Methoxy-6-oxo-1,2,3,4,6,10b-hexahydropyrido[2,1-a]isoindol-10-yl)-3-(pyridin-2-yl)urea]	0.7	2.5	2	1	2	4	3	0.55	–	0.081	< 5.00
Cn1ccc(NC(=O)Nc2cccc3c2C2CC4(CCN2C3=O)SCCS4)n1 (stereo not shown) [Compound 40, 1-(6′-Oxo-3′,4′,6′,10b′-tetrahydro-1′H-spiro[[1,3]dithiolane-2,2′-pyrido[2,1-a]isoindole]-10′-yl)-3-(1-Methyl-1H-pyrazol-3-yl)urea]	–	–	–	–	–	–	–	≥ 10	135	1.9	< 5.00
